# Source: US20240032541A1, “HERBICIDAL COMPOUNDS” (SYNGENTA CROP PROTECTION AG, priority 2020, published 2024)
# Tests used:
# Type in all cases: in vivo
# [1] = test system: Echinochloa crus-galli (ECHCG); assay: Pre-emergence herbicide glasshouse test; conditions: pre-emergence (sprayed after one day cultivation), 250 g/ha, evaluated after 13 days
# Procedure: (§1) Seeds of a variety of test species are sown in standard soil in pots Amaranthus retoflexus (AMARE), Echinochloa crus-galli (ECHCG), Setaria faberi (SETFA)). After cultivation for one day (pre-emergence) or after 8 days cultivation (post-emergence) under controlled conditions in a glasshouse (at 24/16° C., day/night; 14 hours light; 65% humidity), the plants are sprayed with an aqueous spray solution derived from the formulation of the technical active ingredient in acetone/water (50:50) solution containing 0.5% Tween 20 (polyoxyethelyene sorbitan monolaurate, CAS RN 9005-64-5). Compounds are applied at 250 g/ha unless otherwise stated. The test plants are then grown in a glasshouse under controlled conditions in a glasshouse (at 24/16° C., day/night; 14 hours light; 65% humidity) and watered twice daily. After 13 days for pre and post-emergence, the test is evaluated for the percentage damage caused to the plant. The biological activities are shown in the following table on a five-point scale (5=81-100%; 4=61-80%; 3=41-60%; 2=21-40%; 1=0-20%).
# Setaria faberi (SETFA) [2] = assay: Pre-emergence herbicide glasshouse test; conditions: pre-emergence (sprayed after one day cultivation), 250 g/ha, evaluated after 13 days
# Procedure: as §1
# [3] = test system: Amaranthus retoflexus (AMARE); assay: Pre-emergence herbicide glasshouse test; conditions: pre-emergence (sprayed after one day cultivation), 250 g/ha, evaluated after 13 days
# Procedure: as §1
# [4] = test system: Echinochloa crus-galli (ECHCG); assay: Post-emergence herbicide glasshouse test; conditions: post-emergence (sprayed after 8 days cultivation), 250 g/ha, evaluated after 13 days
# Procedure: as §1
# Setaria faberi (SETFA) [5] = assay: Post-emergence herbicide glasshouse test; conditions: post-emergence (sprayed after 8 days cultivation), 250 g/ha, evaluated after 13 days
# Procedure: as §1
# [6] = test system: Amaranthus retoflexus (AMARE); assay: Post-emergence herbicide glasshouse test; conditions: post-emergence (sprayed after 8 days cultivation), 250 g/ha, evaluated after 13 days
# Procedure: as §1
Structure (SMILES),"percentage damage caused to the plant, five-point scale, ECHCG [1]","percentage damage caused to the plant, five-point scale, SETFA (Setaria faberi (SETFA) [2])","percentage damage caused to the plant, five-point scale, AMARE [3]","percentage damage caused to the plant, five-point scale, ECHCG [4]","percentage damage caused to the plant, five-point scale, SETFA (Setaria faberi (SETFA) [5])","percentage damage caused to the plant, five-point scale, AMARE [6]"
Cc1cnc(Oc2cccc3nc(C(F)(F)F)nc(CCCC(F)(F)F)c23)nc1 [Compound 1.020],5 (5=81-100%),5 (5=81-100%),5 (5=81-100%),5 (5=81-100%),5 (5=81-100%),4 (4=61-80%)
FC(F)(F)CCCCc1nc(C(F)(F)F)nc2cccc(Oc3ncc(Cl)cn3)c12 [Compound 1.021],5 (5=81-100%),5 (5=81-100%),5 (5=81-100%),4 (4=61-80%),4 (4=61-80%),5 (5=81-100%)
FC(F)(F)CCc1nc(C(F)(F)F)nc2cccc(Oc3ncc(Cl)cn3)c12 [Compound 1.022],5 (5=81-100%),5 (5=81-100%),5 (5=81-100%),4 (4=61-80%),4 (4=61-80%),4 (4=61-80%)
FC(F)(F)CCCc1nc(C(F)(F)F)nc2cccc(Oc3ncc(Br)cn3)c12 [Compound 1.025],5 (5=81-100%),5 (5=81-100%),4 (4=61-80%),5 (5=81-100%),4 (4=61-80%),4 (4=61-80%)
COc1cnc(Oc2cccc3nc(C(F)(F)F)nc(CCCC(F)(F)F)c23)nc1 [Compound 1.026],4 (4=61-80%),4 (4=61-80%),2 (2=21-40%),3 (3=41-60%),4 (4=61-80%),4 (4=61-80%)
FC(F)Oc1cnc(Oc2cccc3nc(C(F)(F)F)nc(CCCC(F)(F)F)c23)nc1 [Compound 1.027],2 (2=21-40%),0,3 (3=41-60%),1 (1=0-20%),1 (1=0-20%),4 (4=61-80%)
"C=CCCc1nc(C(F)(F)F)nc2cccc(Oc3ncc(Cl)cn3)c12 [Compound 1.028, 4-but-3-enyl-5-(5-chloropyrimidin-2-yl) oxy-2 (trifluoromethyl)quinazoline]",5 (5=81-100%),5 (5=81-100%),4 (4=61-80%),4 (4=61-80%),4 (4=61-80%),5 (5=81-100%)
FC(F)(F)CCCc1nc(Br)nc2cccc(Oc3ncc(Cl)cn3)c12 [Compound 1.029],1 (1=0-20%),4 (4=61-80%),1 (1=0-20%),1 (1=0-20%),2 (2=21-40%),4 (4=61-80%)
FC(F)(F)CCCc1nc(C2CCCC2)nc2cccc(Oc3ncc(Cl)cn3)c12 [Compound 1.031],5 (5=81-100%),5 (5=81-100%),1 (1=0-20%),3 (3=41-60%),3 (3=41-60%),4 (4=61-80%)
CCCCCCc1nc(CCCC(F)(F)F)c2c(Oc3ncc(Cl)cn3)cccc2n1 [Compound 1.032],4 (4=61-80%),4 (4=61-80%),4 (4=61-80%),3 (3=41-60%),3 (3=41-60%),5 (5=81-100%)
CCCc1nc(CCCC(F)(F)F)c2c(Oc3ncc(Cl)cn3)cccc2n1 [Compound 1.033],5 (5=81-100%),5 (5=81-100%),2 (2=21-40%),3 (3=41-60%),3 (3=41-60%),4 (4=61-80%)
FC(F)(F)CCCc1nc(C2CC2)nc2cccc(Oc3ncc(Cl)cn3)c12 [Compound 1.036],4 (4=61-80%),5 (5=81-100%),2 (2=21-40%),3 (3=41-60%),2 (2=21-40%),4 (4=61-80%)
"Cc1nc2cccc(Oc3ncc(Cl)cn3)c2c(CCCC(F)(F)F)c1C#N [Compound 1.043, 5-(5-chloropyrimidin-2-yl) oxy-2-methyl-4-(4,4,4-trifluorobutyl) quinoline-3-carbonitrile]",1 (1=0-20%),2 (2=21-40%),0,1 (1=0-20%),2 (2=21-40%),2 (2=21-40%)
"Cc1ccc(Oc2ncc(Cl)cn2)c2c(CCCC(F)(F)F)nc(C(F)(F)F)nc12 [Compound 1.046, 5-(5-chloropyrimidin-2-yl)oxy-8-methyl-4-(4,4,4-trifluorobutyl)-2-(trifluoromethyl)quinazoline]",2 (2=21-40%),3 (3=41-60%),2 (2=21-40%),3 (3=41-60%),2 (2=21-40%),4 (4=61-80%)
"CC(C)c1nc(CCCC(F)(F)F)c2c(Oc3ncc(Cl)cn3)cccc2n1 [Compound 1.050, 5-(5-chloropyrimidin-2-yl)oxy-2-isopropyl-4-(4,4,4-trifluorobutyl)quinazoline]",5 (5=81-100%),5 (5=81-100%),5 (5=81-100%),2 (2=21-40%),3 (3=41-60%),5 (5=81-100%)
